Test results from patent US5916576A, “Method of scavenging free radicals using orange extract” (Amway Corporation, priority 1997, dated 1999).

Assay: DPPH free radical scavenging activity test (percent inhibition, absorbency at 516 nm)
Type: biochemical
Conditions: Table 1; 1% solutions, in the manner of Example 1 (DPPH, 30 minutes at 37° C, 516 nm)
Method: A control solution was prepared by measuring 39.43 mg of 2,2-diphenyl-1-picrylhydrazyl hydrate (DPPH), a known source of free radicals, and diluting it to 1000 ml with ethanol. A control cuvette was charged with 1.75 ml of the control and 1.75 ml of ethanol. A blank cuvette was charged with 3.5 ml of ethanol. The cuvettes were placed in an oven for 30 minutes at 37° C. The absorbency was measured at 516 nm using a UV/vis spectrophotometer by placing the blank cuvette into the reference slot and the control cuvette into the sample slot.
An orange extract was prepared according to the method described above. A test cuvette was charged with 1.75 ml of the control solution and 1.75 ml of a 1% solution of orange extract. A reference cuvette was charged with 1.75 ml of the orange extract and 1.75 ml of ethanol. The cuvettes were placed in an oven for 30 minutes at 37° C. The absorbency was measured in the manner described above with the test cuvette placed in the sample slot and the reference cuvette placed in the reference slot.
The free radical scavenging activity was calculated as a percentage of inhibition of the generation of the free radicals using the following formula:
Percent Inhibition=100×[1-(DT/DR)]
DT is the measured absorbance of the test cuvette with respect to the reference cuvette and DR is the measured absorbance of the control cuvette with respect to the blank cuvette. […]

Compound	% INHIBITION
O=c1oc2cc(O)ccc2s1 [Tioxolone, tioxolone]	50%
CC(=O)Oc1c(C)c(C)c2c(c1C)CCC(C)(CCC[C@H](C)CCC[C@H](C)CCCC(C)C)O2 (some centres unmarked) [Tocopheryl Acetate, tocopheryl acetate]	67%
